Data taken from patent publication US8334298B2, “Treatment or prevention of ovarian hyperstimulation syndrome (OHSS) using a dopamine agonist” (Ferring International Center S.A., priority 2005, dated 2012).

Test system: OHSS rats
Test: Previous experiments of the group: cabergoline and vascular permeability in OHSS rats
Format: in vivo
Conditions: cabergoline 250 μg/kg/day; p<0.05
Experimental: Vehicle control group (quinagolide 0 μg/kg) (n=8). Eight rats were implanted with prolactin placebo pellets, 5 days release, between 10:00 to 11:00 on day 26, just following hCG injection (see General Procedures, above). Six hours after pellet implantation, the rats in this group were orally administered vehicle solution (1:6 alcohol in water mixture) (without quinagolide). They received another oral vehicle administration of vehicle solution 24 hours later. Experimental groups (quinagolide at 0.1, 0.3, 1, 3, 10, 25, 50 μg/kg/day to 7 test groups of rats) (n=8 in each test group). The rats in these groups were implanted with prolactin pellets, 5 days release, between 10:00 to 11:00 on day 26, just following hCG injection (see General Procedures, above). […] In this manner, the desired 0.1, 0.3, 1, 3, 10, 25, 50 μg/kg doses to be assayed were achieved. Twenty four hours later, the rats in this group were administered with another dose of the same amounts of quinagolide. Positive (cabergoline) control group (n=6). These six rats were implanted with prolactin pellets, 5 days release, between 10:00 to 11:00 .m on day 26, just following hCG injection. […] Twenty four hours later, the rats in this group were administered with another dose of the same amount of cabergoline. […] Reconstitution and dilution process to reach appropriate quinagolide doses for oral administration. […]

In the case of `C=CCN1C[C@H](C(=O)N(CCCN(C)C)C(=O)NCC)C[C@@H]2c3cccc4[nH]cc(c34)C[C@H]21` [Cabergoline, cabergoline], the “vascular permeability in OHSS rats” value was “significant decrease in vascular permeability”.
